How the values were obtained:
[1] = Exploratory Pk on rats, oral route (bioavailability)
Description: The study was conducted with exploratory Pk on rats: 2 mg/kg in a single dose, oral route
Administration vehicle: distilled water (Aguettant)
Positive more Electrospray (ESI+) detection LC/MS/MS (liquid chromatography/mass spectrometry/mass spectrometry) bioanalysis method
Pharmacokinetic analysis with Kinetica (Thermo Instruments, US)

[2] = Dissolution kinetics of vinflunine in pH 6.8 buffer; format: physicochemical; details: equivalent to 50 mg vinflunine in 50 ml pH 6.8 buffer, 400 rpm
Description: In a 100 ml Erlenmeyer, introduce an accurately measured test sample equivalent to 50 mg of vinflunine. Add 50 ml of pH 6.8 buffer. Place under magnetic stirring at 400 rpm. Take a 2 ml sample under magnetic stirring at 15, 30, 60 and 120 minutes. Filter these samples on Gelman GHP Acrodisc 0.45 μm polypropylene filters. The solution should be clear.
Determine the vinflunine content by means of liquid chromatography.

[3] = Dissolution kinetics of ketoprofen in water at 37° C.; format: physicochemical; details: equivalent to 50 mg ketoprofen in 50 ml water, 400 rpm
Description: In a 100 ml Erlenmeyer, introduce an accurately measured test sample equivalent to 50 mg of ketoprofen, pure or impregnating the cross-linked PVP. Add 50 ml of water. Place under magnetic stirring at 400 rpm in a water bath at 37° C.+/−2° C. […] Filter these samples on Gelman GHP Acrodisc 0.45 μm polypropylene filters. The solution should be clear.
Determine the ketoprofen content by means of liquid chromatography.

| Ketoprofen Dissolution 15 min ([3]; 15 min) [µg/mL] | Ketoprofen Dissolution 60 min ([3]; 60 min) [µg/mL] | Compound | CL ([1]; fasted rats, 2 mg/kg single dose, oral route) [L/h] | Vinflunine level at 0 ([1]; fasted rats, 2 mg/kg single dose, oral route, time 0) | Vinflunine level at 0.25 ([1]; fasted rats, 2 mg/kg single dose, oral route, time 0.25) | Vinflunine level at 0.5 ([1]; fasted rats, 2 mg/kg single dose, oral route, time 0.5) | Vinflunine level at 1 ([1]; fasted rats, 2 mg/kg single dose, oral route, time 1) | Vinflunine level at 2 ([1]; fasted rats, 2 mg/kg single dose, oral route, time 2) | Vinflunine level at 4 ([1]; fasted rats, 2 mg/kg single dose, oral route, time 4) | Vinflunine level at 6 ([1]; fasted rats, 2 mg/kg single dose, oral route, time 6) | Vinflunine level at 8 ([1]; fasted rats, 2 mg/kg single dose, oral route, time 8) | Vinflunine level at 24 ([1]; fasted rats, 2 mg/kg single dose, oral route, time 24) | AUC(0-t) ([1]; rat, in vivo, po, 2 mg/kg) [ng·h/mL] | Cmax ([1]; rat, in vivo, po, 2 mg/kg) [ng/mL] | Tmax ([1]; rat, in vivo, po, 2 mg/kg) [h] | half-life ([1]; rat, in vivo, po, 2 mg/kg) [h] | Vinflunine Dissolution 15 min ([2]; 15 min) [µg/mL] | Vinflunine Dissolution 30 min ([2]; 30 min) [µg/mL] | Vinflunine Dissolution 60 min ([2]; 60 min) [µg/mL] | Vinflunine Dissolution 120 min ([2]; 120 min) [µg/mL] |
| --- | --- | --- | --- | --- | --- | --- | --- | --- | --- | --- | --- | --- | --- | --- | --- | --- | --- | --- | --- | --- |
| – | – | CC[C@]12C=CCN3CC[C@@]4(c5cc([C@@]6(C(=O)OC)C[C@@H]7C[C@@H](C(C)(F)F)CN(Cc8c6[nH]c6ccccc86)C7)c(OC)cc5N(C)[C@H]4[C@@](O)(C(=O)OC)[C@@H]1OC(C)=O)[C@@H]32 [Vinflunine base, Vinflunine] | 8.70 | 0 | 19.37 | 11.75 | 17.90 | 14.93 | 13.80 | 12.03 | 10.88 | 2.59 | 200 | 19.4 | 0.25 | 7.9 | 252 | 387 | 520 | 606 |
| 173 | 171 | CC(C(=O)O)c1cccc(C(=O)c2ccccc2)c1 (centres unmarked) [ketoprofen, Ketoprofen] | – | – | – | – | – | – | – | – | – | – | – | – | – | – | – | – | – | – |

From patent US9028806B2, “Method for impregnation with supercritical CO2” (Pierre Fabre Medicament, priority 2009, dated 2015)
